Data from BindingDB's records for doi:10.1124/mol.51.1.109 (Max-Planck Institute For Experimental Medicine, 1997).

Tests used:
[1] = biological target: T1, P2X purinoceptor 4 (Rattus norvegicus, UniProt P51577)
T1 sequence (P51577 whole entry): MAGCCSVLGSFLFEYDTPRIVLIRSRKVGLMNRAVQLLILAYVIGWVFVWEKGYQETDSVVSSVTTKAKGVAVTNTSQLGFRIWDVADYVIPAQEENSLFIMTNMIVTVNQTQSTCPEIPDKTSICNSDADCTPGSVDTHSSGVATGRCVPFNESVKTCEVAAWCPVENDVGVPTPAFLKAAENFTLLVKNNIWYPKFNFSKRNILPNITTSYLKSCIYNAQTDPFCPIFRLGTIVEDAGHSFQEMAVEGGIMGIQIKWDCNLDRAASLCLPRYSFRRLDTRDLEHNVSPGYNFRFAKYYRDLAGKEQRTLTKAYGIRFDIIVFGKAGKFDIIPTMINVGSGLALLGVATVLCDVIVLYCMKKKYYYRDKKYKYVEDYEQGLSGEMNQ

[2] = biological target: T2, P2X purinoceptor 4 (Homo sapiens, UniProt Q99571)
T2 sequence (Q99571 whole entry): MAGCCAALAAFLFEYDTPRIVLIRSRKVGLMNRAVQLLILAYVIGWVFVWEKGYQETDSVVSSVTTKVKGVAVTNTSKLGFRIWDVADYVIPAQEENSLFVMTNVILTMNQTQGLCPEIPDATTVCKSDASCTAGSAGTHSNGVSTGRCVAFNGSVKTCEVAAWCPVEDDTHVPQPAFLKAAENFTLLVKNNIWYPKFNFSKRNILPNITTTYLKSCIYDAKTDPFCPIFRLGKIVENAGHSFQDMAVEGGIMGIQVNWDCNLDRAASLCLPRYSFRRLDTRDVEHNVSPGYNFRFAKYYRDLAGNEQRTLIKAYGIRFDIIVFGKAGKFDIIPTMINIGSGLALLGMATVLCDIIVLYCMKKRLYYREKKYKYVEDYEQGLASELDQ

SMILES | Ki [1] | Ki [2]
Cc1nc(/N=N/c2ccc(S(=O)(=O)O)cc2S(=O)(=O)O)c(COP(=O)(O)O)c(C=O)c1O | 0.5 µM | –
O=S1(=O)OC(c2cc(Br)c(O)c(Br)c2)(c2cc(Br)c(O)c(Br)c2)c2ccccc21 [NSC_8272] | 0.301 µM | 0.0783 µM
Nc1c(S(=O)(=O)O)cc(Nc2ccc(Nc3nc(Cl)nc(Nc4ccccc4S(=O)(=O)O)n3)c(S(=O)(=O)O)c2)c2c1C(=O)c1ccccc1C2=O | 0.128 µM | –
Nc1c(S(=O)(=O)O)cc(Nc2ccc(Nc3nc(Cl)nc(Nc4cccc(S(=O)(=O)O)c4)n3)c(S(=O)(=O)O)c2)c2c1C(=O)c1ccccc1C2=O | 0.0462 µM | –
Cc1ccc(C(=O)Nc2ccc(S(=O)(=O)O)c3cc(S(=O)(=O)O)cc(S(=O)(=O)O)c23)cc1NC(=O)c1cccc(NC(=O)Nc2cccc(C(=O)Nc3cc(C(=O)Nc4ccc(S(=O)(=O)O)c5cc(S(=O)(=O)O)cc(S(=O)(=O)O)c45)ccc3C)c2)c1 [suramin] | 0.5 µM | 0.178 µM
